Consider two substances from US6723702B2, “Use of relaxin treat diseases related to vasoconstriction” (RAS Medical, Inc., priority 2000, dated 2004).

Series [1] has as its system rats. Description: Metabolic cage studies. The class given is in vivo, rat. The protocol: Six rats were individually housed in Nalgene metabolism cages (Rodent Metabolism Cages for 150-300 g rats, VWR Scientific). Water and food were provided ad libidum. After 5-7 days of habituation, two baseline 24-hour urine collections were obtained. Then, an osmotic minipump containing purified porcine RLX was implanted (4 μg/hour). […] Food and water intake, as well as urinary flow rate were measured by gravimetric technique. The urinary excretion of sodium, cyclic guanosine monophosphate, and NOx were also determined. The measurements made during the two baseline collections were averaged, as were the measurements made during the three post-relaxin collections.
Plasma osmolality was measured using a freezing-point depression instrumentation osmometer (Model 3MO, Advanced Instruments, Needham Heights, Mass.). Plasma and urine IN and PAH were assayed by standard techniques. Urinary sodium concentration was measured by ion selective electrode (Sodium-Potassium Chemistry Module, Beckman Instruments, Inc., Brea, Calif.). Urinary cGMP was determined by specific radioimmunoassay as previously described. Conrad and Vernier (1989) Am. J. Physiol. 257:R847-R853. Urinary NOX was measured by reduction of nitrate to nitrite, the latter determined by the Griess reaction which produces a calorimetric product measured at 540 nm (Nitrate/Nitrite Colorimetric Assay Kit, Cayman Chemical, Ann Arbor, Mich.).

Series [2] in a line: Serum rhRLX, quantitative sandwich immunoassay (Example 2). The class given is in vivo, rat. The following applies: 4 μg/hour. The source says: The technique of urine collection has proven to be reliable. Conrad and Colpoys (1986) J. Clin. Invest. 77:236-245; Danielson and Conrad (1995) J. Clin. Invest. 96:482-490; and Danielson and Conrad (1996) Circ. Res. 79:1161-1166. Indeed, after reaching steady-state in this study, the excretion rates of IN and PAH were 91±3 and 100±4% of their respective infusions. After measuring baseline mean arterial pressure and renal function, an osmotic minipump (model 2ML1, Alza Co., Palo Alto Calif.) containing either recombinant human relaxin (rhRLX; n=12 rats) or vehicle (n=7) was implanted subcutaneously on the back using light ether anesthesia. […] Five days later, mean arterial pressure (MAP), glomerular filtration rate (GFR), effective renal plasma flow (ERPF), and other parameters were again assessed as describe above. At this time, the excretion rates of IN and PAH were 91±3 and 98±2% of their respective infusion rates. […]
Inulin concentration in plasma and urine was measured by the anthrone method, and PAH was determined by the method of Bratton and Marshall as modified by Smith. […] Plasma sodium was measured by a Kodak Ektachem Instrument (Rochester, N.Y.). Plasma osmolality was determined by freezing point depression (Advanced Osmometer, Model 3MO, Advanced Instruments, Needham Heights Mass.). […] The rhRLX in serum was measured using a quantitative sandwich immunoassay, again in a blinded fashion. […]

Series [3] concerns Alveolar macrophages or spleen cells. The series can be described thus: VEGF expression by RT-PCR in non-wound macrophages and immune cells. The class given is in vivo, rat. The following applies: following relaxin treatment. The source says: Resident macrophages and immune cells from other non-wound sources were also harvested from vehicle- and relaxin-treated rats, and assayed for VEGF expression by RT-PCR.

For series [4], the system named is small mesenteric arteries. The series can be described thus: Myogenic reactivity of small mesenteric arteries. The class given is in vivo, rat. Conditions: female rats chronically administered rhRLX (FIG. 15).
Series [5] concerns bFGF and VEGF protein staining, peri-infarct area of the heart. The series can be described thus: Rat LCAL model: immunohistochemical analysis of the peri-infarct area. The class given is in vivo. The protocol: Immunohistochemical analysis of the peri-infarct area of the heart was performed as follows. Transverse sections from paraffin embedded hearts were obtained at 3 levels. Sections were stained with H&E to assess neovascularization. Slides of heart sections were deparaffinized in xylene and washed with ethanol. Slides were then rinsed in sterile double distilled water before proceeding with antigen retrieval, as recommended by the antibody vendor (Biogenex). Sections were incubated for 30 minutes in 1.5% normal goat blocking serum (Biogenex, San Ramon, Calif.) and washed three times for 5 minutes each with PBS. Sections were then incubated with a monoclonal antibody against VEGF (VEGF-C1), or a polyclonal antibody against bFGF (FGF-2-147) (both at 5 μg/ml), before washing with PBS. Primary, and anti-goat or anti-rabbit secondary antibodies were purchased from Santa Cruz Biotechnology (Santa Cruz, Calif.). Sections were then incubated in multilink, a biotinylated goat anti-immunoglobulin for use with mouse, rabbit, guinea pig and rat primary antibodies (Biogenex) for 30 minutes at room temperature, followed by washing twice for 10 minutes each with PBS. Sections were labeled with peroxidase conjugated streptavidin for 20 minutes before finally washing twice for 5 minutes with PBS and air-drying). […]

On to “Porcine RLX: lyophilized, purified porcine relaxin (Sherwood and O'Byrne 1974), dissolved in Ringer's solution”, for which, in series [1] (Baseline), the Food intake turned out to be 13.2 ± 1.0 g, the “Urinary NOx excretion” value was 4.8 ± 0.5 μmole/24hours, the “Urinary cGMP excretion” value came to 32.2 ± 1.9 nmole/24 hours and the Urinay sodium excretion turned out to be 438.8 ± 34.4 μEq/24hours. For the same substance, in series [1] (Baseline), the Urine output was 9.1 ± 1.7 ml/24 hours and the Water intake amounted to 19.1 ± 2.7 mL. Besides, in series [1] (Day 2 of RLX 4 μg/hour s.c.), the Food intake is 15.5 ± 1.5 g, the “Urinary NOx excretion” value is listed as 6.0 ± 1.0 μmole/24hours, the “Urinary cGMP excretion” value is 26.5 ± 2.5 nmole/24 hours and the Urinay sodium excretion is on record as 800.2 ± 77.2 μEq/24hours. Moreover, in series [1] (Day 2 of RLX 4 μg/hour s.c.), the Urine output turned out to be 11.4 ± 2.2 ml/24 hours and the Water intake worked out at 20.1 ± 3.4 mL. In addition, in series [1] (Day 5 of RLX 4 μg/hour s.c.), the Food intake worked out at 16.7 ± 1.0 g, the “Urinary NOx excretion” value was determined as 5.9 ± 0.7 μmole/24hours, the “Urinary cGMP excretion” value came out at 28.6 ± 3.8 nmole/24 hours and the Urinay sodium excretion worked out at 477.8 ± 57.9 μEq/24hours. In series [1] (Day 5 of RLX 4 μg/hour s.c.), this substance displayed a Urine output of 8.8 ± 0.9 ml/24 hours and a Water intake of 23.6 ± 3.3 mL. Also, in series [1] (Post-relaxin day 4-18), the Food intake is 15.3 ± 0.5 g, the “Urinary NOx excretion” value was found to be 6.1 ± 0.9 μmole/24hours, the “Urinary cGMP excretion” value is 32.7 ± 3.8 nmole/24 hours and the Urinay sodium excretion was found to be 480.69 ± 54.4 μEq/24hours. In series [1] (Post-relaxin day 4-18), this substance displayed a Urine output of 9.1 ± 1.1 ml/24 hours and a Water intake of 19.1 ± 2.6 mL.
Consider “rhRLX: recombinant human relaxin, identical in amino acid sequence to the product of the human H2 gene; A chain of 24, B chain of 29 amino acids”, for which the “mean serum concentration of rhRLX” value was 0.0166 ± 0.0015 µg/mL in series [2] (female rats, day 5) and 0.0123 ± 0.0007 µg/mL in series [2] (male rats, day 5, n=12). The VEGF expression entry in series [3] is listed as “did not show an upregulation”. The myogenic reactivity result in series [4] is recorded as “reduced myogenic reactivity”. Also, the “peri-infarct bFGF staining” value in series [5] (7 and 21 days, vs vehicle-treated hearts, blinded scoring) is “more intense”. Further, the “intensity of VEGF staining” value in series [5] (relaxin vs vehicle-treated hearts) is “No differences in intensity”.
